These results are taken from PubChem BioAssay AID743396 (Broad Institute, 2014).

SMILES strings stand for the structures. Active and inactive are the calls of the source.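 The calls were made as follows: active = fitted curve reaches a 40% rise in fluorescent cells at or below the top valid dose; inactive = opposite-direction effect, or the rest.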

The first test can be described thus: autofluorescent compounds in non-GFP fibroblasts, dose response, artefact control for X-chromosome reactivation project, imaging, mTEFS fibroblasts, cherry-pick (AID 743396).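 Also: raw share of Hoechst-counted cells scored GFP positive without control normalization.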 The note with it: mTEFS fibroblasts autofluorescence, GFP-channel imaging, 3 days; at 19.5 µM (top of the series).
As to `OCC[n+]1c2ccccc2nc2ccc(N3CCOCC3)cc21`, the % fluorescent cells increase is 0% (inactive).

The same test, now with this note: mTEFS fibroblasts autofluorescence, GFP-channel imaging, 3 days; at 19.5 µM (top of the series); cells pretreated with 5-aza-dC.
`COc1ccc(/C=c2/sc3nc(-c4ccccc4)c(-c4ccccc4)n3c2=O)cc1`: the % fluorescent cells increase is 0.085% (inactive).
Still for that read-out and setting: then `CC(=O)c1c(COC(=O)c2ccccc2Cl)nc2ccccc2[n+]1[O-]`, with 0.001% (inactive).
For `O=C(O)c1cccnc1C(=O)N1CCc2c([nH]c3ccccc23)C1C(F)(F)F` (stereo unspecified), the % fluorescent cells increase was 0.447% (inactive).
As to `CCOC(=O)C1CCN(C(=O)c2ccc(NS(=O)(=O)c3ccc(F)cc3C)cc2)CC1`, the % fluorescent cells increase was 0% (inactive).
`Cc1ccc(N2C(=O)C3C4C=CC(CNC(=S)N5CCN(c6ccccc6)CC5)(O4)C3C2=O)cc1` (stereo unspecified): the % fluorescent cells increase was 1.71% (inactive).
Consider `NNc1nc2c(-c3ccc(F)cc3)nnn2c2ccccc12`, for which the % fluorescent cells increase was 0.008% (inactive).
Still for that read-out and setting: then `O=[N+]([O-])/C=C/c1ccc2c(ccn2Cc2ccccc2)c1`, with 0% (inactive); and `COc1cc(NC(C)CCc2ccccc2)cc(OC)c1OC` (stereo unspecified), with 0% (inactive); and `COCCCn1c(C)cc(C(=O)COC(=O)CCc2nc3ccccc3c(=O)[nH]2)c1C`, with 3.52% (inactive).
On the same count and under the same terms, with `CO[C@@H]1CN(C)C(=O)c2ccc(NC(=O)Nc3cccc(Cl)c3)cc2OC[C@H](C)N(C(=O)Nc2c(C)noc2C)C[C@H]1C` the figure was 0.367% (inactive); with `CC(C)(C)N(Cc1ccccc1)C(=O)COC(=O)c1ccc(N2CCCC2=O)cc1`, -0.007% (inactive); with `Cc1ccc(-c2nc(CS(=O)CC(=O)NCCCN3CC(C)CC(C)C3)c(C)o2)cc1` (stereo unspecified), 0.023% (inactive).
The same measure, in the same setting: then `OC[C@@H]1Nc2ccc(C#Cc3ccccc3)cc2[C@H]2[C@@H]1CCN2Cc1nccs1`, with 0.018% (inactive); and `O=C(N/N=C/c1ccc(Br)s1)c1ccc([N+](=O)[O-])cc1`, with -0.007% (inactive).
Consider `COCCNC(=O)CSc1nc2scc(-c3ccccc3)c2c(=O)[nH]1`, for which the % fluorescent cells increase is 0.106% (inactive).
Same read-out and setting: with `O=C1N[C@H](Cc2ccccc2)COCc2cn(nn2)CC[C@@H]1Cc1ccccc1` the figure was 0.024% (inactive); with `C[C@@H]1COc2cccc(NCCO)c2S(=O)(=O)N1`, 0% (inactive); with `Cc1ccc(S(=O)(=O)N2CC3(O)CN(C(=O)OC(C)C)N(C(=O)OC(C)C)CC3(OC(=O)NCc3ccccc3)C2)cc1` (stereo unspecified), 0.003% (inactive).
As to `S=C(SSC(=S)N1CCOCC1)N1CCOCC1`, the % fluorescent cells increase was 0% (inactive).
For the compound `COc1ccc(/C=C2\CCc3ccccc3C2=O)cc1CN1CCOCC1`, the % fluorescent cells increase was -0.007% (inactive).
As for `CC(=O)Oc1ccc2c(=O)c(-c3ccccc3)coc2c1`, the % fluorescent cells increase was 0.02% (inactive).
Still for that read-out and setting: then `COc1cc(C(=O)NC(=S)Nc2cccc3nc(C)ccc23)cc(OC)c1OC`, with 0.128% (inactive); and `Cc1ccc(C(=O)Cn2cncn2)cc1`, with -0.006% (inactive); and `Cc1nnc(SCc2cc(=O)oc3ccc4ccccc4c23)n1Cc1ccccc1`, with 0% (inactive).
As to `COc1ccccc1/C=C/C(=O)OCCCN(C)C`, the % fluorescent cells increase was 0% (inactive).
Turning to `CC1CC(C)CN(C(=O)C(C)N2CCN(S(=O)(=O)c3ccccc3F)CC2)C1` (stereo unspecified), the % fluorescent cells increase is 0.338% (inactive).
`O=C(NNC(=O)c1cc2ccccc2o1)c1ccc(Cl)cc1`: the % fluorescent cells increase is 0.148% (inactive).
On to `CC(=O)c1ccc(NC(=O)COC(=O)CCc2ccc(S(=O)(=O)N3CCOCC3)cc2)cc1`, for which the % fluorescent cells increase was 0.108% (inactive).
Regarding `COc1ccc(CNC(=O)c2ccc(-c3cnn(C)c3)c3ccoc23)cc1OC`, the % fluorescent cells increase was 1.28% (inactive).
As for `O=C(COC(=O)/C=C/c1cccc(C(F)(F)F)c1)NC(=O)NCc1ccco1`, the % fluorescent cells increase is 0.351% (inactive).
For `C=CC[C@@H](CC(=O)N(CCO)Cc1ccccc1)C(=O)NCCOC(=O)[C@@H](CC=C)Cc1ccc(F)cc1`, the % fluorescent cells increase is 0.009% (inactive).
`O=C(OCc1cc(=O)n2c(n1)sc1ccccc12)c1ccc(O)cc1O`: the % fluorescent cells increase was -0.007% (inactive).
The same measure, in the same setting: then `CCOc1ccc(NC(=S)NC(C)c2cccs2)cc1` (stereo unspecified), with 0% (inactive).
As for `CCCNNC(=O)C(O)(c1ccccc1)c1ccccc1`, the % fluorescent cells increase was 0.02% (inactive).
On the same count and under the same terms, with `CC1CN(Cc2c(O)ccc3c2oc(=O)c2ccccc23)CC(C)O1` (stereo unspecified) the figure was 0.279% (inactive); with `COc1ccccc1N1CCN(C(=O)CN2C(=O)c3cccc4cccc(c34)C2=O)CC1`, 0.023% (inactive).
For `COc1ccccc1NC(=O)N[C@H]1C=C[C@@H](CC(=O)N[C@@H](C)c2ccccc2)O[C@@H]1CO`, the % fluorescent cells increase was 0.342% (inactive).
On the same count and under the same terms, with `Cc1ccc(NCc2nnc(SCC(=O)NNC(=O)Cc3ccccc3)n2C)cc1` the figure was 0.009% (inactive); with `CN(C)S(=O)(=O)c1cccc(C(=O)NCC2(N3CCOCC3)CCCCC2)c1`, 0.019% (inactive); with `CCCN(C(=O)c1ccc(-n2cncn2)c([N+](=O)[O-])c1)C1CCS(=O)(=O)C1` (stereo unspecified), 0.034% (inactive).
The same measure, in the same setting: with `CC(=Nc1ccc(Cl)cc1N)c1c(O)cc(C)oc1=O` the figure was 0.643% (inactive).
Take `CCCCC(=O)N(C)c1c(CC)nc2c(OCC(=O)c3ccc(F)cc3)cccn12`: the % fluorescent cells increase is 3.76% (inactive).
As for `CCOC(=O)CSc1nnc(CCCCCN2C(=O)c3cccc4cccc(c34)C2=O)o1`, the % fluorescent cells increase was 0.071% (inactive).
In the case of `Oc1ccc(Br)cc1C=Nc1ccc2c3c(cccc13)CC2`, the % fluorescent cells increase was 3.42% (inactive).
For `CCC(=O)OCCNc1cc(Sc2nc3ccccc3[nH]2)c2nonc2c1[N+](=O)[O-]`, the % fluorescent cells increase was -0.003% (inactive).
On the same count and under the same terms, then `COc1ccccc1CNC(=O)COC(=O)COc1ccccc1F`, with 1.84% (inactive); and `COc1ccc(NC(=O)Nc2ccc3c(c2)CC(=O)N([C@H](C)CO)C[C@H](C)[C@@H](CN(C)S(=O)(=O)c2ccc(F)cc2)O3)cc1`, with 2.89% (inactive).
Same read-out and setting: with `CCCCCCCCN1C(=O)[C@H](CC(=O)N2CCSCC2)C[C@@]2(C(=O)OCC)CCCC=C12` the figure was 0.056% (inactive).
Take `COc1cc(/C=C/c2ccc3cccc(O)c3n2)ccc1O`: the % fluorescent cells increase was 0% (inactive).
Turning to `COc1ccc(CCCc2nc3ccccc3[nH]2)cc1`, the % fluorescent cells increase was -0.011% (inactive).
Turning to `CN(c1ccccc1)S(=O)(=O)c1ccc(C(=O)NCC(c2ccco2)N2CCCCC2)cc1` (stereo unspecified), the % fluorescent cells increase is 6.89% (inactive).
Take `O=S(=O)(Nc1cc(Sc2cccc3cccnc23)c(O)c2ccccc12)c1ccccc1`: the % fluorescent cells increase is -0.003% (inactive).
With `CC1CCCC(NC(=O)CSc2cccc[n+]2[O-])C1C` (stereo unspecified), the % fluorescent cells increase was 0.029% (inactive).
As for `COc1cc(/C=C/C(=O)c2ccc3c(c2)OCCO3)cc(Br)c1OCC(=O)N(C)C`, the % fluorescent cells increase was 7.79% (inactive).
Still for that read-out and setting: with `COc1ccc(-c2nn(-c3ccccc3)cc2C(=O)NC(=S)Nc2cc(Cl)ccc2Cl)cc1` the figure was 2.13% (inactive); with `CCCC(=O)OCCNc1cc(Sc2nccn2C)c2nonc2c1[N+](=O)[O-]`, 0% (inactive); with `CCOC(=O)/C(C#N)=C/C=C1/C=CC=CN1C`, 0.015% (inactive).
Turning to `Cn1c(=O)[nH]c(=O)c2c1nc1n2CCCN1Cc1ccccc1`, the % fluorescent cells increase was -0.011% (inactive).
Take `CC(=O)N[C@@H](CC(=O)O)C(=O)O`: the % fluorescent cells increase is 0.642% (inactive).
For `C[C@H](NC(=O)C[C@H]1CC[C@@H](NC(=O)Cc2ccccn2)[C@@H](CO)O1)c1ccccc1`, the % fluorescent cells increase is 0.008% (inactive).
For the compound `Cc1ccccc1NC(=O)CN1C(=O)S/C(=C\c2ccc(-c3cc(C(=O)O)ccc3C)o2)C1=O`, the % fluorescent cells increase was 0% (inactive).
Turning to `COc1ccccc1N(C)c1cc2c(c3c1ccn3C)C1CCC2C1` (stereo unspecified), the % fluorescent cells increase is 0.033% (inactive).
In the case of `Cc1ccccc1OCC(O)CNC1CCC(NCC(O)COc2ccccc2C)CC1` (stereo unspecified), the % fluorescent cells increase was 0% (inactive).
As to `CCC(=O)N1CC(=O)N2[C@@H](CO)[C@@H](c3ccc(-c4ccccc4F)cc3)[C@@H]2C1`, the % fluorescent cells increase is 0% (inactive).
On to `Cc1cccc(OCC(=O)N(C)c2c(N)n(Cc3ccccc3)c(=O)[nH]c2=O)c1C`, for which the % fluorescent cells increase was 0.02% (inactive).
Regarding `Cc1ccsc1/C=N/n1c(-c2cc(-c3ccccc3)n[nH]2)n[nH]c1=S`, the % fluorescent cells increase was 0% (inactive).
Regarding `COC(=O)c1ccc(NC(=O)c2nc(S(=O)(=O)Cc3cccc(C)c3)ncc2Cl)cc1`, the % fluorescent cells increase is -0.007% (inactive).
For `Cc1ccc(S(=O)(=O)N(C)C[C@H]2Oc3ccc(NC(=O)Nc4ccccc4)cc3CC(=O)N([C@H](C)CO)C[C@@H]2C)cc1`, the % fluorescent cells increase was 0% (inactive).
Still for that read-out and setting: with `COC(=O)c1cc(C(=O)N2CCN(c3ccccc3OC)CC2)cc([N+](=O)[O-])c1` the figure was 0% (inactive).
On to `C(CCCN1CCCCC1)CCN1CCCCC1`, for which the % fluorescent cells increase is 0.016% (inactive).
For the compound `COc1ccc(NS(=O)(=O)c2ccc(NC(C)=O)cc2)nn1`, the % fluorescent cells increase is -0.003% (inactive).
On to `Cn1cc(C(=O)N/N=C/C(Br)=C/c2ccccc2)ccc1=O`, for which the % fluorescent cells increase was 0% (inactive).
In the case of `COc1cc(/C=C/C(=O)c2ccc([N+](=O)[O-])o2)ccc1O`, the % fluorescent cells increase is 5.15% (inactive).
Regarding `CCOC(=O)C1(Cc2ccccc2C)CCCN(C(=O)CSC)C1` (stereo unspecified), the % fluorescent cells increase is 0% (inactive).
`CCc1ccc(CCC(=O)Nc2ncc(Cc3ccccc3Cl)s2)o1`: the % fluorescent cells increase was -0.007% (inactive).
